Legend:
[1] = target: c-kit mutant D816V (Homo sapiens (Human), UniProt P10721, D816V/DEL694-753); assay: c-Kit mutant D816V biochemical assay (AlphaScreen kinase activity)
Method in brief: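 AlphaScreen with streptavidin donor and PY30 acceptor beads read phosphotyrosine on biotin-(E4Y)10 substrate (30 nM). Enzyme: E. coli-expressed N-His c-Kit D816V, residues 551-934 lacking kinase insert 694-753. Reaction 30 min at room temperature, 10 μM ATP, 5% DMSO; IC50 fitted over 8 three-fold dilutions.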

[2] = system: BaF3-FL KIT D816V or BaF3-FL KIT V560G/D816V cell line; assay: Cell-based assays of c-Kit mutant kinase activity (cell proliferation, ATPlite); conditions: at least one of the c-kit cell assays of Example 7
Method in brief: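 BaF3 cells dependent on transfected full-length human KIT D816V or V560G/D816V (pCI-Neo, CMV promoter) were seeded at 1×10^4 cells/well and exposed to 8-point 1:3 dilutions from 10 μM top (0.2% DMSO) for three days at 37° C. ATPlite luminescence gave cell number; IC50 from concentration-response.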

Chain of c-kit mutant D816V (P10721 other isoform, or with tags, fused parts or gaps D816V/del 694-753): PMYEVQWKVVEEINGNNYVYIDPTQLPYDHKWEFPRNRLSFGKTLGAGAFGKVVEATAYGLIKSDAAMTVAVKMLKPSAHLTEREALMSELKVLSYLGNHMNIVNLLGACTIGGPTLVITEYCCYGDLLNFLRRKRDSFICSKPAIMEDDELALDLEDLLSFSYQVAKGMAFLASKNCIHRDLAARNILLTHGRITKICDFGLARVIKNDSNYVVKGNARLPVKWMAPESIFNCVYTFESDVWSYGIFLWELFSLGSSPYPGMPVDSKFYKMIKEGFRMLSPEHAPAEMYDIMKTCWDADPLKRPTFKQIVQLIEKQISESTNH

SMILES | IC50 [1] [µM] | IC50 [2] [nM]
CCOc1ccc(-c2[nH]c(C3CCN(c4ncnc5[nH]c(C)cc45)CC3)nc2C)cc1C [P-3125, 4-[4-[5-(4-ethoxy-3-methyl-phenyl)-4-methyl-1H-imidazol-2-yl]-1-piperidyl]-6-methyl-7H-pyrrolo[2,3-d]pyrimidine] | 1 to 10 | < 10000
CCOc1cc(-c2[nH]c(C3CCN(c4ncnc5[nH]c(C)cc45)CC3)nc2C)ccc1C [P-3126, 4-[4-[5-(3-ethoxy-4-methyl-phenyl)-4-methyl-1H-imidazol-2-yl]-1-piperidyl]-6-methyl-7H-pyrrolo[2,3-d]pyrimidine] | 0.0001 to 1 | < 10000
Cc1cc2c(N3CCC(c4nc(C)c(-c5ccc6c(c5)OC(F)(F)O6)[nH]4)CC3)ncnc2[nH]1 [P-3127, 4-[4-[5-(2,2-difluoro-1,3-benzodioxol-5-yl)-4-methyl-1H-imidazol-2-yl]-1-piperidyl]-6-methyl-7H-pyrrolo[2,3-d]pyrimidine] | 1 to 10 | < 10000
COc1ccc(-c2[nH]c(C3CCN(c4ncnc5[nH]c(C)cc45)CC3)nc2C)cc1C [P-3128, 4-[4-[5-(4-methoxy-3-methyl-phenyl)-4-methyl-1H-imidazol-2-yl]-1-piperidyl]-6-methyl-7H-pyrrolo[2,3-d]pyrimidine] | 0.0001 to 1 | < 10000
COc1cc(-c2[nH]c(C3CCN(c4ncnc5[nH]c(C)cc45)CC3)nc2C)ccc1C [P-3129, 4-[4-[5-(3-methoxy-4-methyl-phenyl)-4-methyl-1H-imidazol-2-yl]-1-piperidyl]-6-methyl-7H-pyrrolo[2,3-d]pyrimidine] | 1 to 10 | < 10000
COc1ccc(-c2[nH]c(C3CCN(c4ncnc5[nH]c(C)cc45)CC3)nc2C)cc1 [P-3130, 4-[4-[5-(4-methoxyphenyl)-4-methyl-1H-imidazol-2-yl]-1-piperidyl]-6-methyl-7H-pyrrolo[2,3-d]pyrimidine] | 1 to 10 | < 10000
COc1cccc(-c2[nH]c(C3CCN(c4ncnc5[nH]c(C)cc45)CC3)nc2C)c1 [P-3131, 4-[4-[5-(3-methoxyphenyl)-4-methyl-1H-imidazol-2-yl]-1-piperidyl]-6-methyl-7H-pyrrolo[2,3-d]pyrimidine] | 0.0001 to 1 | < 10000
Cc1nc(C2CCN(c3ncnc4[nH]c(-c5ccc(C#N)cc5)cc34)CC2)[nH]c1-c1ccc2c(c1)OCCO2 [P-3132, 4-[4-[4-[5-(2,3-dihydro-1,4-benzodioxin-6-yl)-4-methyl-1H-imidazol-2-yl]-1-piperidyl]-7H-pyrrolo[2,3-d]pyrimidin-6-yl]benzonitrile] | 0.0001 to 1 | < 10000
Cc1nc(C2CCN(c3ncnc4[nH]c(-c5cnn(C(F)F)c5)cc34)CC2)[nH]c1-c1ccc2c(c1)OCCO2 [P-3133, 6-[1-(difluoromethyl)pyrazol-4-yl]-4-[4-[5-(2,3-dihydro-1,4-benzodioxin-6-yl)-4-methyl-1H-imidazol-2-yl]-1-piperidyl]-7H-pyrrolo[2,3-d]pyrimidine] | 0.0001 to 1 | < 10000
COc1cc(-c2cc3c(N4CCC(c5nc(C(F)(F)F)c(-c6ccc(C)cc6)[nH]5)CC4)ncnc3[nH]2)ccn1 [P-3134, 6-(2-methoxy-4-pyridyl)-4-[4-[5-(p-tolyl)-4-(trifluoromethyl)-1H-imidazol-2-yl]-1-piperidyl]-7H-pyrrolo[2,3-d]pyrimidine] | 0.0001 to 1 | < 10000
Cc1ccc(-c2[nH]c(C3CCN(c4ncnc5[nH]c(-c6ccc(F)cc6)cc45)CC3)nc2C(F)(F)F)cc1 [P-3135, 6-(4-fluorophenyl)-4-[4-[5-(p-tolyl)-4-(trifluoromethyl)-1H-imidazol-2-yl]-1-piperidyl]-7H-pyrrolo[2,3-d]pyrimidine] | 0.0001 to 1 | < 10000
Cc1nc(C2CCN(c3ncnc4[nH]c(-c5ccc(F)cc5)cc34)CC2)[nH]c1-c1ccc(C(F)(F)F)cc1 [P-3136, 6-(4-fluorophenyl)-4-[4-[4-methyl-5-[4-(trifluoromethyl)phenyl]-1H-imidazol-2-yl]-1-piperidyl]-7H-pyrrolo[2,3-d]pyrimidine] | 0.0001 to 1 | < 10000
Cc1nc(C2CCN(c3ncnc4[nH]c(-c5ccc(C#N)cc5)cc34)CC2)[nH]c1-c1ccc(C(F)(F)F)cc1 [P-3137, 4-[4-[4-[4-methyl-5-[4-(trifluoromethyl)phenyl]-1H-imidazol-2-yl]-1-piperidyl]-7H-pyrrolo[2,3-d]pyrimidin-6-yl]benzonitrile] | 0.0001 to 1 | < 10000
Cc1nc(C2CCN(c3ncnc4[nH]c(-c5cnn(C(F)F)c5)cc34)CC2)[nH]c1-c1ccc2c(c1)OCO2 [P-3138, 4-[4-[5-(1,3-benzodioxol-5-yl)-4-methyl-1H-imidazol-2-yl]-1-piperidyl]-6-[1-(difluoromethyl)pyrazol-4-yl]-7H-pyrrolo[2,3-d]pyrimidine] | 0.0001 to 1 | < 10000
CCOc1ccc(-c2[nH]c(C3CCN(c4ncnc5[nH]c(-c6cnn(C(F)F)c6)cc45)CC3)nc2C)cc1C [P-3139, 6-[1-(difluoromethyl)pyrazol-4-yl]-4-[4-[5-(4-ethoxy-3-methyl-phenyl)-4-methyl-1H-imidazol-2-yl]-1-piperidyl]-7H-pyrrolo[2,3-d]pyrimidine] | 0.0001 to 1 | < 10000
CCC1(c2nc(C)c(-c3ccc(OC)cc3)[nH]2)CCN(c2ncnc3[nH]c(C)cc23)CC1 [P-3140, 4-[4-ethyl-4-[5-(4-methoxyphenyl)-4-methyl-1H-imidazol-2-yl]-1-piperidyl]-6-methyl-7H-pyrrolo[2,3-d]pyrimidine] | 0.0001 to 1 | < 10000
CCC1(c2nc(C)c(-c3ccc(OC)c(C)c3)[nH]2)CCN(c2ncnc3[nH]c(C)cc23)CC1 [P-3141, 4-[4-ethyl-4-[5-(4-methoxy-3-methyl-phenyl)-4-methyl-1H-imidazol-2-yl]-1-piperidyl]-6-methyl-7H-pyrrolo[2,3-d]pyrimidine] | 0.0001 to 1 | < 10000
CCOc1ccc(-c2[nH]c(C3(CC)CCN(c4ncnc5[nH]c(C)cc45)CC3)nc2C)cc1C [P-3142, 4-[4-[5-(4-ethoxy-3-methyl-phenyl)-4-methyl-1H-imidazol-2-yl]-4-ethyl-1-piperidyl]-6-methyl-7H-pyrrolo[2,3-d]pyrimidine] | 0.0001 to 1 | < 10000
CCC1(c2nc(C)c(-c3ccc4c(c3)OCO4)[nH]2)CCN(c2ncnc3[nH]c(C)cc23)CC1 [P-3143, 4-[4-[5-(1,3-benzodioxol-5-yl)-4-methyl-1H-imidazol-2-yl]-4-ethyl-1-piperidyl]-6-methyl-7H-pyrrolo[2,3-d]pyrimidine] | 0.0001 to 1 | < 10000
CCC1(c2nc(C)c(-c3ccc4c(c3)OCCO4)[nH]2)CCN(c2ncnc3[nH]c(C)cc23)CC1 [P-3144, 4-[4-[5-(2,3-dihydro-1,4-benzodioxin-6-yl)-4-methyl-1H-imidazol-2-yl]-4-ethyl-1-piperidyl]-6-methyl-7H-pyrrolo[2,3-d]pyrimidine] | 0.0001 to 1 | < 10000
CCOc1ccc(-c2[nH]c(C3(CC)CCN(c4ncnc5[nH]c(C)cc45)CC3)nc2C)cc1 [P-3145, 4-[4-[5-(4-ethoxyphenyl)-4-methyl-1H-imidazol-2-yl]-4-ethyl-1-piperidyl]-6-methyl-7H-pyrrolo[2,3-d]pyrimidine] | 0.0001 to 1 | < 10000
COc1ccc(-c2[nH]c(C3CCN(c4ncnc5[nH]c(-c6ccnc(OC)c6)cc45)CC3)nc2C(F)(F)F)cc1 [P-3146, 4-[4-[5-(4-methoxyphenyl)-4-(trifluoromethyl)-1H-imidazol-2-yl]-1-piperidyl]-6-(2-methoxy-4-pyridyl)-7H-pyrrolo[2,3-d]pyrimidine] | 0.0001 to 1 | < 10000
COc1ccc(-c2[nH]c(C3CCN(c4ncnc5[nH]c(-c6ccc(C#N)cc6)cc45)CC3)nc2C(F)(F)F)cc1 [P-3148, 4-[4-[4-[5-(4-methoxyphenyl)-4-(trifluoromethyl)-1H-imidazol-2-yl]-1-piperidyl]-7H-pyrrolo[2,3-d]pyrimidin-6-yl]benzonitrile] | 0.0001 to 1 | < 10000
COc1cc(-c2cc3c(N4CCC(c5nc(C)c(-c6ccc(C(F)(F)F)cc6)[nH]5)CC4)ncnc3[nH]2)ccn1 [P-3149, 6-(2-methoxy-4-pyridyl)-4-[4-[4-methyl-5-[4-(trifluoromethyl)phenyl]-1H-imidazol-2-yl]-1-piperidyl]-7H-pyrrolo[2,3-d]pyrimidine] | 0.0001 to 1 | < 10000
Cc1cc2c(N3CCC(C)(c4nc(C)c(-c5ccc6c(c5)OCO6)[nH]4)CC3)ncnc2[nH]1 [P-3150, 4-[4-[5-(1,3-benzodioxol-5-yl)-4-methyl-1H-imidazol-2-yl]-4-methyl-1-piperidyl]-6-methyl-7H-pyrrolo[2,3-d]pyrimidine] | 0.0001 to 1 | < 10000
Cc1cc2c(N3CCC(C)(c4nc(C)c(-c5ccc6c(c5)OCCO6)[nH]4)CC3)ncnc2[nH]1 [P-3151, 4-[4-[5-(2,3-dihydro-1,4-benzodioxin-6-yl)-4-methyl-1H-imidazol-2-yl]-4-methyl-1-piperidyl]-6-methyl-7H-pyrrolo[2,3-d]pyrimidine] | 0.0001 to 1 | < 10000
Cc1cc2c(N3CCC(C)(c4nc(C)c(-c5ccc6c(c5)OC(F)(F)O6)[nH]4)CC3)ncnc2[nH]1 [P-3152, 4-[4-[5-(2,2-difluoro-1,3-benzodioxol-5-yl)-4-methyl-1H-imidazol-2-yl]-4-methyl-1-piperidyl]-6-methyl-7H-pyrrolo[2,3-d]pyrimidine] | 0.0001 to 1 | < 10000
